The values below come from the METLIN SMRT retention time set (Domingo-Almenara et al. 2019).

The structures appear in SMILES notation.

This data set can be described thus: gradient 5% acetonitrile 3 min, to 50% in 2 min, to 85% in 15 min, held 3 min, 100 µL/min. Particulars: column: Zorbax Extend-C18 2.1 x 50 mm; eluents: water / acetonitrile, 0.1% formic acid. The gist of the method:
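Pure standards were analyzed in mixtures of ~100 molecules using HPLC coupled to a quadrupole time-of-flight mass spectrometer, in both positive and negative ionization mode. Separation used a Zorbax Extend-C18 column (2.1 × 50 mm, 1.8 μm) at 100 μL/min, with water and acetonitrile each containing 0.1% formic acid. Dead and dwell volumes were 40 μL and 900 μL, and data were collected over 3 months. Retention time was read from computationally picked adduct peaks, each inspected manually.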
For `CNC(=O)c1sc(Nc2ccc(Cl)cn2)nc1C`, the RP-LC retention time is 687 s. The same measure for `CCNc1cc(N2CCCC(CCC(=O)NCc3ccccc3OC)C2)ncn1` (centres undefined): 656 s; for `O=C(Cn1nc2c(Oc3ccccc3)nccn2c1=O)Nc1ccc(Br)cc1F`: 898 s; for `COc1ccccc1Cc1noc(C2CN(C(=O)c3cc(C4CC4)on3)C2)n1`: 876 s.

Compound `Cc1noc(C)c1S(=O)(=O)N1CCC(Cc2nc(-c3ccncc3)n[nH]2)C1` (centres undefined) displayed an RP-LC retention time of 619 s. The same measure for `O=C(c1cnccn1)N1CCC(Oc2nc3ccccc3s2)CC1`: 755 s; for `Cc1cc2c(c(=O)n(-c3ccccc3)c(=O)n2CC(=O)Nc2ccc(Br)cc2)n1C`: 877 s; for `O=C(NCCn1c(=O)n(Cc2ccccc2)c2cccnc21)C1CCCC1`: 760 s. On to `CC1=C(c2ccc(C)c(C)c2)S(=O)(=O)N=C1N1CCCN(C(=O)NCC(C)C)CC1`, for which the RP-LC retention time came out at 853 s. The same measure for `COc1ccccc1C(=O)N1CCN(c2cnn3c(C4CC4)nnc3c2)CC1`: 623 s. For `O=C(c1cc(F)cc(F)c1)N1CCCC(c2ccnc(-c3cccc(F)c3)n2)C1` (centres undefined), the RP-LC retention time amounted to 1120 s. As for `CCOC(=O)c1nc(Nc2ccc(OC)c(Cl)c2)c2ccccc2n1`, the RP-LC retention time was 886 s. The same measure for `O=C(NCc1cccc(Cl)c1)C1CCN(c2nnc(-c3ccccc3)o2)CC1`: 865 s; for `COc1ccc(S(=O)(=O)N2CCC(Cc3nncn3-c3ccccc3)CC2)cc1`: 775 s.

In turn, `CCC(=O)Nc1ccc(-n2cnc(C(=O)NCc3ccccc3)c2)nc1` came in with an RP-LC retention time of 697 s. As to `Cc1nc2nc(-c3ccccc3)nn2c(Sc2ccccc2N)c1C`, the RP-LC retention time stood at 710 s. The same measure for `Cc1c(CN2CCN(C(=O)[C@H](C)O)CC2)sc2c(N3CCOCC3)nc(-c3cnc(N)nc3)nc12`: 612 s; for `COc1ccc(C(C)NC(=O)c2sc3ncccc3c2-n2cccc2)cc1OC` (centres undefined): 929 s; for `Cc1cccc(NS(=O)(=O)c2ccc3c(c2)C(=O)N(C)c2ncccc2O3)c1`: 1050 s. With `CCOC(=O)CCC(=O)N1CCN(Cc2nc(C(C)(C)C)cs2)CC1`, the RP-LC retention time is 611 s. Consider `CCOc1ccc(NC(=O)C2CC(=O)N(c3n[nH]c4cccc(F)c34)C2)cc1` (centres undefined), for which the RP-LC retention time turned out to be 744 s. With `Cc1nnc(CNC(=O)CCc2c[nH]c3ccccc23)o1`, the RP-LC retention time came out at 622 s.

With `CN1CCN(c2cccc(Nc3nc4c(-c5ccc(S(C)(=O)=O)cc5)cccn4n3)c2)CC1`, the RP-LC retention time amounted to 675 s. As to `O=C(Cc1nnc(-c2ccc3ncccc3c2)o1)Nc1cccc(Cl)c1`, the RP-LC retention time came to 768 s. For the compound `O=C(Nc1nncs1)C1CCN(C(=O)c2ccccc2F)CC1`, the RP-LC retention time is 641 s. The same measure for `CCN1C(=O)CCc2cc(NS(=O)(=O)c3ccc(F)c(C)c3)ccc21`: 834 s; for `CCc1ccc(C2=C(C)C(N3CCCN(C(=O)C(C)(C)C)CC3)=NS2(=O)=O)cc1`: 901 s. Consider `Cc1cc2c(=O)n(CC(=O)Nc3ccc(Br)cc3F)ccc2s1`, for which the RP-LC retention time turned out to be 869 s. In turn, `CCOc1ccc(S(=O)(=O)N2CCCC(C(=O)NC(C)C)C2)cc1` (centres undefined) showed an RP-LC retention time of 825 s.

As to `CCOc1ccc(N2CC(CNS(=O)(=O)c3ccccc3C(F)(F)F)CC2=O)cc1` (centres undefined), the RP-LC retention time worked out at 824 s. The same measure for `Cc1ccc2c(c1)N(Cc1cccc(F)c1)N=C(C(=O)N1CCC(C)CC1)S2(=O)=O`: 1070 s. The same measure for `CCCn1c(CCc2cccc(NS(=O)(=O)c3cnn(CC)c3)c2)nc2ccccc21`: 675 s.

For `C=CCn1nnc(NCc2ccc(-c3cccc(Cl)c3)o2)n1`, the RP-LC retention time came out at 1050 s.

The compound `Cc1noc(C)c1S(=O)(=O)N1CCC2(CCC(CN(C)Cc3ccncc3)O2)CC1` (centres undefined) yielded an RP-LC retention time of 604 s. `C=CCNc1nc(-c2ccc([N+](=O)[O-])cc2)nc2ccccc12` registered an RP-LC retention time of 786 s.

Take `Cc1nc2cccnc2n1CC1CCCN(S(=O)(=O)Cc2ccc(Cl)cc2)C1` (centres undefined): the RP-LC retention time amounted to 718 s. On to `Cc1noc(-c2ccc(OC3CN(C(=O)c4cc(F)ccc4F)C3)cc2)n1`, for which the RP-LC retention time was 868 s. With `COc1ccc(CNC2=NCCNC23CCN(S(=O)(=O)c2ccc(C)cc2)CC3)cc1`, the RP-LC retention time was found to be 732 s. `Cc1cc(C)cc(NS(=O)(=O)c2c(C)sc(C)c2-c2cc(C)[nH]n2)c1` showed an RP-LC retention time of 1100 s.

`O=C(COc1ccccc1)NCCSc1c[nH]c2ccccc12` returned an RP-LC retention time of 831 s.

On to `COc1ccc(-c2ccc(N3CCN(c4ccccn4)CC3)nn2)cc1S(=O)(=O)N1CCOCC1`, for which the RP-LC retention time worked out at 572 s. The same measure for `Cc1cc(C)n(CCC(=O)NC2CCN(c3ccc(=O)[nH]n3)C2)n1` (centres undefined): 579 s.

In the case of `Cc1csc(-c2ccc(N3CCN(C(=O)c4cccc(C#N)c4)CC3)nc2)n1`, the RP-LC retention time amounted to 771 s.

Turning to `COc1ccc(-c2cn3c(CC(=O)Nc4nccs4)csc3n2)cc1OC`, the RP-LC retention time came out at 653 s.

`CCCC(=O)N1CCc2c([nH]c3ccccc23)C12C(=O)Nc1ccccc12` (centres undefined) yielded an RP-LC retention time of 830 s.

Take `CC(=O)Nc1ccc(OCC(=O)O)nc1`: the RP-LC retention time came out at 574 s. The same measure for `O=C(NCCCN1CCCC1=O)C1c2ccccc2CC(=O)N1Cc1ccccc1` (centres undefined): 678 s. The same measure for `CCOc1ccccc1C(=O)N1CCN(c2cc(-c3cccs3)[nH]n2)CC1`: 781 s; for `Cc1ccc(-c2nnc(N3CCC(C(=O)NCCCN4CCCC4=O)CC3)o2)cc1`: 660 s; for `COc1ccc(N2CC(C(=O)NCC(=O)N3CCCc4ccccc43)CC2=O)cc1` (centres undefined): 724 s. The same measure for `NS(=O)(=O)c1ccc(NC(=O)CCCN2C(=O)c3cccc4cccc(c34)C2=O)cc1`: 694 s; for `O=C(Cc1nnc(-c2ccsc2)o1)N1CCc2ccccc2C1`: 780 s; for `O=C(NC1CCc2ccccc21)c1nnn(-c2ccc(F)cc2)c1-c1ccncc1` (centres undefined): 799 s. For the compound `Cc1cc(=O)n(CC(=O)NCc2ccc(F)cc2)c(N2CCCCC2)n1`, the RP-LC retention time amounted to 656 s.

With `Cc1ccc(-c2ncccc2CNS(=O)(=O)c2ccc(Cl)cc2)cc1`, the RP-LC retention time was determined as 766 s. The same measure for `COc1ccc2[nH]cc(CCNC(=O)CCCn3c4ccccc4c4cnn(C)c(=O)c43)c2c1`: 795 s. The same measure for `Cc1cnc(-c2cccnc2)n1C1CCN(S(=O)(=O)c2ccc3c(c2)OCCO3)C1` (centres undefined): 633 s; for `CCc1cccc(NC(=O)Cn2nc(C(=O)N3CCOCC3)c3ccccc32)c1`: 840 s.

In turn, `O=C(Cn1ccn2nc(-c3ccccc3)c(CO)c2c1=O)Nc1ccccc1F` showed an RP-LC retention time of 865 s. The same measure for `Cc1cccc(N2CCN(C(=O)C3CCc4sc(C(=O)N(C)C)cc4C3)CC2)c1` (centres undefined): 867 s. The same measure for `COc1ccc(NC(=O)Cn2ccnc2-c2ccnc(N3CCSCC3)c2)cc1OC`: 619 s; for `CCn1nnc2cc(-c3noc(C4CC(=O)N(c5ccc(C)cc5)C4)n3)ccc21` (centres undefined): 880 s. With `Cc1cccc(Nc2ncccc2C(=O)O)c1C`, the RP-LC retention time was 707 s.

For the compound `CCCCN1CCN(C(=O)CCc2cc3ccc(C)cc3[nH]c2=O)CC1`, the RP-LC retention time was 628 s.

As to `COc1ccccc1Cc1nc(C2CC(=O)N(c3ccc(F)c(Cl)c3)C2)no1` (centres undefined), the RP-LC retention time is 1020 s. The same measure for `COc1ccc(OC)c(NC(=O)Cn2c(=O)n(-c3ccc(C)cc3)c(=O)c3c2cc(C)n3C)c1`: 908 s; for `CC(=O)N1CCc2cc(N3CC(C(=O)Nc4cc(Cl)ccc4F)CC3=O)ccc21` (centres undefined): 768 s. Turning to `Cc1ccc(F)c(-n2nnc(C(=O)O)c2C)c1`, the RP-LC retention time was 689 s.

In turn, `Cc1c(C(=O)NC2CCCC2)cnn1-c1cc(-c2nc(C3CC3)no2)ccn1` gave an RP-LC retention time of 887 s. `COc1cc(NC(=O)Nc2nccn(-c3ccc(C)c(C)c3)c2=O)cc(OC)c1` returned an RP-LC retention time of 955 s. The same measure for `Cc1cc2nc(NC3=NCN(CC4CCCO4)CN3)nc(C)c2cc1C` (centres undefined): 683 s; for `CCC(=O)N1CCc2cc(C(=O)N3CCCCCC3)ccc21`: 770 s. `CCN1c2cc(F)ccc2C(=O)NC12CCN(C(=O)c1ccc3c(c1)OCO3)CC2`: the RP-LC retention time was 771 s. The compound `Cc1ccc(NC(=O)c2cc(C3CC3)n3nccc3n2)c(F)c1` yielded an RP-LC retention time of 1150 s.

`COc1cccc(N2CCN(S(=O)(=O)c3cccc(-c4nc(-c5ccccc5)no4)c3)CC2)c1` showed an RP-LC retention time of 1290 s. In turn, `O=C(Cn1ccn2nc(-c3ccc(F)cc3)c(CO)c2c1=O)N1CCc2ccccc21` showed an RP-LC retention time of 857 s.

As to `O=C(CCc1nc(CSc2nnc(-c3ccccc3)o2)no1)Nc1ccccc1F`, the RP-LC retention time is 870 s. The same measure for `Cc1cc(Cl)ccc1NC(=O)N1C[C@H](c2nc(-c3cccnc3)no2)[C@@H](C)C1`: 827 s; for `CCOc1ccc2ncc(C(=O)c3ccc(OC)cc3)c(N3CCN(CC)CC3)c2c1`: 600 s.
